How the values were obtained:
[1] = tested on: green foxtail; test: Test C preemergence; type: in vivo, Setaria viridis; settings: 0 to 100 scale (0 no effect, 100 complete control)
How it was run: (§1)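 Visual injury score, 0–100 (100 = complete control), taken 10 days after treatment relative to untreated controls. Pre: directed spray onto soil over sown seeds. Post: foliar spray at one- to two-leaf stage, 2–10 cm. Solvent/surfactant formulation; loam–sand soil; greenhouse.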

[2] = tested on: sedge, umbrella; test: Test D flooded paddy test; type: in vivo, Cyperus difformis; settings: 250 g ai/ha, applied to paddy water, visual rating after 13 to 14 days, scale 0 to 100 (0 no effect, 100 complete control)
How it was run: (§2)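 Post-flood water application at the 2-leaf stage; 3 cm flood depth kept constant; visual control rating 0–100 after 13–14 days greenhouse growth.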

[3] = tested on: kochia; test: Test C postemergence; type: in vivo, Bassia scoparia; settings: 10 days
How it was run: as §1

[4] = tested on: ragweed; test: Test C postemergence; type: in vivo, Ambrosia artemisiifolia; settings: 10 days
How it was run: as §1

[5] = tested on: barnyardgrass; test: Test C preemergence; type: in vivo, Echinochloa crusgalli; settings: 0 to 100 scale (0 no effect, 100 complete control)
How it was run: as §1

[6] = tested on: green foxtail; test: Test C postemergence; type: in vivo, Setaria viridis; settings: 10 days
How it was run: as §1

[7] = tested on: corn; test: Test C preemergence; type: in vivo, Zea mays; settings: 0 to 100 scale (0 no effect, 100 complete control)
How it was run: as §1

[8] = tested on: ryegrass, Italian; test: Test C postemergence; type: in vivo, Lolium multiflorum; settings: 10 days
How it was run: as §1

[9] = tested on: kochia; test: Test C preemergence; type: in vivo, Bassia scoparia; settings: 0 to 100 scale (0 no effect, 100 complete control)
How it was run: as §1

[10] = tested on: soybean; test: Test C preemergence; type: in vivo, Glycine max; settings: 0 to 100 scale (0 no effect, 100 complete control)
How it was run: as §1

[11] = tested on: blackgrass; test: Test C postemergence; type: in vivo, Alopecurus myosuroides; settings: 10 days
How it was run: as §1

[12] = tested on: wheat; test: Test C preemergence; type: in vivo, Triticum aestivum; settings: 0 to 100 scale (0 no effect, 100 complete control)
How it was run: as §1

[13] = tested on: barnyardgrass; test: Test C postemergence; type: in vivo, Echinochloa crusgalli; settings: 10 days
How it was run: as §1

[14] = tested on: horseweed; test: Test C postemergence; type: in vivo, Erigeron canadensis; settings: 10 days
How it was run: as §1

[15] = tested on: blackgrass; test: Test C preemergence; type: in vivo, Alopecurus myosuroides; settings: 0 to 100 scale (0 no effect, 100 complete control)
How it was run: as §1

[16] = tested on: soybean; test: Test C postemergence; type: in vivo, Glycine max; settings: 10 days
How it was run: as §1

[17] = tested on: corn; test: Test C postemergence; type: in vivo, Zea mays; settings: 10 days
How it was run: as §1

[18] = tested on: pigweed, palmer; test: Test C preemergence; type: in vivo, Amaranthus palmeri; settings: 0 to 100 scale (0 no effect, 100 complete control)
How it was run: as §1

[19] = tested on: oat, wild; test: Test C postemergence; type: in vivo, Avena fatua; settings: 10 days
How it was run: as §1

[20] = tested on: galium; test: Test C postemergence; type: in vivo, Galium aparine; settings: 10 days
How it was run: as §1

[21] = tested on: rice; test: Test D flooded paddy test; type: in vivo, Oryza sativa; settings: 250 g ai/ha, applied to paddy water, visual rating after 13 to 14 days, scale 0 to 100 (0 no effect, 100 complete control)
How it was run: as §2

[22] = tested on: ragweed; test: Test C preemergence; type: in vivo, Ambrosia artemisiifolia; settings: 0 to 100 scale (0 no effect, 100 complete control)
How it was run: as §1

[23] = tested on: wheat; test: Test C postemergence; type: in vivo, Triticum aestivum; settings: 10 days
How it was run: as §1

[24] = tested on: oat, wild; test: Test C preemergence; type: in vivo, Avena fatua; settings: 0 to 100 scale (0 no effect, 100 complete control)
How it was run: as §1

[25] = tested on: ryegrass, Italian; test: Test C preemergence; type: in vivo, Lolium multiflorum; settings: 0 to 100 scale (0 no effect, 100 complete control)
How it was run: as §1

[26] = tested on: pigweed, palmer; test: Test C postemergence; type: in vivo, Amaranthus palmeri; settings: 10 days
How it was run: as §1

[27] = tested on: ducksalad; test: Test D flooded paddy test; type: in vivo, Heteranthera limosa; settings: 250 g ai/ha, applied to paddy water, visual rating after 13 to 14 days, scale 0 to 100 (0 no effect, 100 complete control)
How it was run: as §2

[28] = tested on: barnyardgrass; test: Test D flooded paddy test; type: in vivo, Echinochloa crus-galli; settings: 250 g ai/ha, applied to paddy water, visual rating after 13 to 14 days, scale 0 to 100 (0 no effect, 100 complete control)
How it was run: as §2

[29] = Preemergence, 500 g ai/ha, visual rating after 10 days
[30] = Test C, preemergence, 125 g ai/ha
[31] = 125 g ai/ha, postemergence, 0 to 100 scale, 0 no effect, 100 complete control
[32] = Postemergence, 500 g ai/ha, visual 0 to 100 scale (0 no effect, 100 complete control)

CCc1ncn(-c2ccc(C)c(C(=O)N3C[C@H](COC)Oc4c(Cl)cccc43)c2)n1 [Compound 265]
80: Plant response rating, Ragweed [4, 31] | Plant response rating, Ryegrass, Italian [8, 31] | Kochia plant response rating [9, 30] | Plant response rating, Wheat [12, 29] | Plant response rating, Oat, Wild [19, 32] | Ryegrass, Italian plant response rating [25, 30]
60: Plant response rating, Horseweed [14, 32] | Plant response rating, Corn [17, 31] | Oat, Wild plant response rating [24, 30]
70: Soybean plant response rating [10, 30] | Wheat plant response rating [12, 30] | Plant response rating, Barnyardgrass [13, 31] | Blackgrass plant response rating [15, 30] | Plant response rating, Corn [17, 32] | Plant response rating, Ragweed [22, 29] | Plant response rating, Wheat [23, 32] | Plant response rating, Pigweed, Palmer [26, 31]
75: Plant response rating, Ducksalad (Flood) [27]
100: Plant response rating, Foxtail, Green [1, 29] | Foxtail, Green plant response rating [1, 30] | Plant response rating, Kochia [3, 32] | Plant response rating, Barnyardgrass [13, 32] | Plant response rating, Soybean [16, 31] | Plant response rating, Soybean [16, 32] | Plant response rating, Pigweed, Palmer [18, 29] | Pigweed, Palmer plant response rating [18, 30] | Plant response rating, Galium [20, 31] | Plant response rating, Galium [20, 32] | Plant response rating, Pigweed, Palmer [26, 32]
40: Plant response rating, Horseweed [14, 31] | Plant response rating, Wheat [23, 31]
25: Plant response rating, Rice (Flood) [21]
30: Corn plant response rating [7, 30] | Plant response rating, Oat, Wild [19, 31] | Plant response rating, Barnyardgrass (Flood) [28]
50: Ragweed plant response rating [22, 30]
90: Plant response rating, Sedge, Umbrella (Flood) [2] | Plant response rating, Kochia [3, 31] | Plant response rating, Ragweed [4, 32] | Plant response rating, Barnyardgrass [5, 29] | Barnyardgrass plant response rating [5, 30] | Plant response rating, Foxtail, Green [6, 31] | Plant response rating, Foxtail, Green [6, 32] | Plant response rating, Corn [7, 29] | Plant response rating, Ryegrass, Italian [8, 32] | Plant response rating, Kochia [9, 29] | Plant response rating, Soybean [10, 29] | Plant response rating, Blackgrass [11, 31] | Plant response rating, Blackgrass [11, 32] | Plant response rating, Blackgrass [15, 29] | Plant response rating, Oat, Wild [24, 29] | Plant response rating, Ryegrass, Italian [25, 29]
